pKi: −log10 of the molar value.
target: PIK3CA (human) (UniProt P42336); assay: Assessment of PIK3CA Kinase Activity
Sequence (P42336 whole entry, looked up): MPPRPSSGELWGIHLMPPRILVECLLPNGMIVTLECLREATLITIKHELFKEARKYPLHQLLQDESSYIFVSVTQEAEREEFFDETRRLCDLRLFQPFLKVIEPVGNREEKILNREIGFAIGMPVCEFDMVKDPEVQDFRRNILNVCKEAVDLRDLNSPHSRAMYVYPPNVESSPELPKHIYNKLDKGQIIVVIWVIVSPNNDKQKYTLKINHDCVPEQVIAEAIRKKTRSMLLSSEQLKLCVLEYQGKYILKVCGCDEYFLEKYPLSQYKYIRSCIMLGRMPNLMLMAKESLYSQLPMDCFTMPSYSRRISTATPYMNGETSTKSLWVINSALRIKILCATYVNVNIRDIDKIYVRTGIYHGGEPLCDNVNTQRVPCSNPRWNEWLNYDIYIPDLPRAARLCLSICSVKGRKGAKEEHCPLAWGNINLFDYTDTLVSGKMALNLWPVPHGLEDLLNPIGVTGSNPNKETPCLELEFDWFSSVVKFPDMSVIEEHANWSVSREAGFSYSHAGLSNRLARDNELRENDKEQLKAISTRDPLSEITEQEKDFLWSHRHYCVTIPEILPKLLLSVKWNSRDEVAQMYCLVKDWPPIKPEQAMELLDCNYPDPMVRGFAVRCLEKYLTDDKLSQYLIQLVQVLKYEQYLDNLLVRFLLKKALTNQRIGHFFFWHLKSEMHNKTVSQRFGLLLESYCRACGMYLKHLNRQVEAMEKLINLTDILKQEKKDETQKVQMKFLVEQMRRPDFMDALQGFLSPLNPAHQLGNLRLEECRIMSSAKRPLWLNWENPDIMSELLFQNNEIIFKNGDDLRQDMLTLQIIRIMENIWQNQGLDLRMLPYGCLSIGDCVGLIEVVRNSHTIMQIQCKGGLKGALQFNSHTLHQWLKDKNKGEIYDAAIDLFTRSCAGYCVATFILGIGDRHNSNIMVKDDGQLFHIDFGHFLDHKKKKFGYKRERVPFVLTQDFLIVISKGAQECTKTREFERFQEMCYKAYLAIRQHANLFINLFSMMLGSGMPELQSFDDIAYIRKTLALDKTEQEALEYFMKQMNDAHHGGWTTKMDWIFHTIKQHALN

Compound | pKi
COc1ccc(Nc2ncc(CN3CCCCC3)cc2-c2nc(C)nc(N)n2)cn1 | 6.82
COc1ccc(Nc2ncc(C)cc2-c2nc(C)nc(N)n2)cn1 | 6.62
COCCOc1cnc(Nc2cnc(Cl)c(NS(C)(=O)=O)c2)c(-c2nc(C)nc(N)n2)c1 | 8.30
COc1cnc(Nc2cnc(Cl)c(NS(=O)(=O)N(C)C)c2)c(-c2nc(C)nc(N)n2)c1 | 7.85
COc1ccc(Nc2ncc(C(O)C(F)(F)F)cc2-c2nc(C)nc(N)n2)cn1 (stereo unspecified) | 7.48
COc1ccc(Nc2ncc(CN3CCC3)cc2-c2nc(C)nc(N)n2)cn1 | 6.80
COc1ccc(Nc2ncc(-c3cnn(C)c3)cc2-c2nc(C)nc(N)n2)cn1 | 8.10
COc1ncc(Nc2ncc(CN3CCN(C(=O)N(C)C4CC4)CC3)cc2-c2nc(C)nc(N)n2)cc1F | 7.35
COCCNCc1cnc(Nc2ccc(OC)nc2)c(-c2nc(C)nc(N)n2)c1 | 6.55
COc1ccc(Nc2ncc(CC3CCN(S(C)(=O)=O)CC3)cc2-c2nc(C)nc(N)n2)cn1 | 8.05
COc1ccc(Nc2ncc(Br)cc2-c2nc(C)nc(N)n2)cn1 | 6.61
COc1ncc(Nc2ncc(CN3CCN(C(=O)N(C)CC(F)(F)F)CC3)cc2-c2nc(C)nc(N)n2)cc1F | 7.62
COc1ccc(Nc2ncc([C@@H](O)C(C)(C)C)cc2-c2nc(C)nc3[nH]cnc23)cn1 | 7.92
COc1cnc(Nc2ccc(OC)nc2)c(-c2nc(C)nc(N)n2)c1 | 7.26
COc1ccc(Nc2ncc(CN3CCC(S(C)(=O)=O)CC3)cc2-c2nc(C)nc(N)n2)cn1 | 7.66
COc1ccc(Nc2ncc(CN3CCCC3)cc2-c2nc(C)nc(N)n2)cn1 | 6.58
COc1ccc(Nc2ncc(CN3CCC(S(C)(=O)=O)C3)cc2-c2nc(C)nc(N)n2)cn1 (stereo unspecified) | 7.80
COc1ccc(Nc2ncc(CN3CCN(C)CC3)cc2-c2nc(C)nc(N)n2)cn1 | 6.59

Compound | pKi
Cc1nc(N)nc(-c2cccnc2Nc2cccc3[nH]ncc23)n1 | 7.48
Cc1nc(N)nc(-c2cc(Cl)cnc2Nc2cnc(Cl)c(NS(=O)(=O)N(C)C)c2)n1 | 8.70
COc1ccc(Nc2ncc(CN3CCN(S(=O)(=O)N(C)C)CC3)cc2-c2nc(C)nc(N)n2)cn1 | 7.77
COc1ccc(Nc2ncc(C3=CCOCC3)cc2-c2nc(C)nc(N)n2)cn1 | 8.30
COc1ccc(Nc2ncc(CO)cc2-c2nc(C)nc(N)n2)cn1 | 7.20
COc1ccc(Nc2ncc(CN3CCOCC3)cc2-c2nc(C)nc(N)n2)cn1 | 6.98
COc1ncc(Nc2ncc([C@@H](C)CO)cc2-c2nc(C)nc(N)n2)cc1F | 8.05
COc1ncc(Nc2ncc([C@H](C)CO)cc2-c2nc(C)nc(N)n2)cc1F | 8.15
Cc1nc(N)nc(-c2cc([C@@H](C)N3CCOCC3)cnc2Nc2cnc(Cl)c(NS(C)(=O)=O)c2)n1 | 8.15
COc1ccc(Nc2ncc([C@H](O)C(C)(C)C)cc2-c2nc(C)nc3[nH]cnc23)cn1 | 7.51
COc1ccc(Nc2ncccc2-c2ncnc3[nH]cnc23)cn1 | 5.14
COc1ccc(Nc2ncc(CN3CCNCC3)cc2-c2nc(C)nc(N)n2)cn1 | 7.21
COc1cccc(Nc2cnc(Nc3ccc(OC)nc3)c(-c3nc(C)nc4[nH]cnc34)c2)c1 | 7.46
COc1ccc(Nc2ncccc2-c2nc(C)nc(N)n2)cn1 | 6.97
COc1ccc(Nc2ncc(CN3CC[C@@H](CO)C3)cc2-c2nc(C)nc(N)n2)cn1 | 6.56
COc1ccc(Nc2ncc(CN3CCC(O)CC3)cc2-c2nc(C)nc(N)n2)cn1 | 6.70
COc1ccc(Nc2ncc(Cc3ccccc3)cc2-c2nc(C)nc(N)n2)cn1 | 7.19
COc1ccc(Nc2ncc(Cl)cc2-c2nc(C)nc(N)n2)cn1 | 7.15

From the Kinase Knowledgebase extract (Sharma et al. 2016)
